{"source": "patent US20230085307A1", "about": "“PYRIDAZINONE COMPOUND AND HERBICIDE” (NISSAN CHEMICAL CORPORATION, priority 2019, published 2023)", "key": {"Italian ryegrass [1]": {"tested_on": "Italian ryegrass", "assay": "Test Example 5: herbicidal effect by foliage application, plastic box (Table 20, symbol K)", "type": "in vivo, Italian ryegrass (Lolium multiflorum)", "settings": "foliage application, 320 g/ha, evaluated three weeks after application", "outline": "(§1)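 Post-emergence foliar test in sterilized diluvial soil. Compound applied as water-diluted emulsion at a predetermined rate to 14-day-old plants; evaluation at three weeks.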"}, "wild oat [2]": {"tested_on": "wild oat", "assay": "Test Example 4: herbicidal effect by soil treatment (Table 19, symbol I)", "type": "in vivo, wild oat (Avena fatua)", "settings": "amount of applied herbicide 320 g/ha", "outline": "(§2)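 Emulsion of test compound, water-diluted to predetermined amount, sprayed on soil after sowing (seed depth ~1.5 cm, sterilized diluvial soil). Greenhouse, 25–30° C. Effect graded at three weeks post-spray.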"}, "barnyard grass [3]": {"tested_on": "barnyard grass", "assay": "Test Example 3: herbicidal effect by foliage application, Wagner pot (Table 18, symbol H)", "type": "in vivo, barnyard grass (Echinochloa crus-galli)", "settings": "amount of applied herbicide 320 g/ha", "outline": "(§3)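 Plants were sown in alluvial soil held under 0.1–0.5 cm standing water and grown 14 days in a greenhouse at 25–30 °C. An emulsifiable formulation, water-diluted to the set dose, was then sprayed onto the foliage, and effects were scored three weeks later using previously defined criteria.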"}, "blackgrass [4]": {"tested_on": "blackgrass", "assay": "Test Example 5: herbicidal effect by foliage application, plastic box (Table 20, symbol J)", "type": "in vivo, blackgrass (Alopecurus myosuroides)", "settings": "foliage application, 320 g/ha, evaluated three weeks after application", "outline": "as §1"}, "velvetleaf [5]": {"tested_on": "velvetleaf", "assay": "Test Example 4: herbicidal effect by soil treatment (Table 19, symbol M)", "type": "in vivo, velvetleaf (Abutilon theophrasti)", "settings": "amount of applied herbicide 320 g/ha", "outline": "as §2"}, "green foxtail [6]": {"tested_on": "green foxtail", "assay": "Test Example 5: herbicidal effect by foliage application, plastic box (Table 20, symbol G)", "type": "in vivo, green foxtail (Setaria viridis)", "settings": "foliage application, 320 g/ha, evaluated three weeks after application", "outline": "as §1"}, "southern crabgrass [7]": {"tested_on": "southern crabgrass", "assay": "Test Example 4: herbicidal effect by soil treatment (Table 19, symbol F)", "type": "in vivo, southern crabgrass (Digitaria ciliaris)", "settings": "amount of applied herbicide 320 g/ha", "outline": "as §2"}, "wild oat [8]": {"tested_on": "wild oat", "assay": "Test Example 5: herbicidal effect by foliage application, plastic box (Table 20, symbol I)", "type": "in vivo, wild oat (Avena fatua)", "settings": "foliage application, 320 g/ha, evaluated three weeks after application", "outline": "as §1"}, "blackgrass [9]": {"tested_on": "blackgrass", "assay": "Test Example 4: herbicidal effect by soil treatment (Table 19, symbol J)", "type": "in vivo, blackgrass (Alopecurus myosuroides)", "settings": "amount of applied herbicide 320 g/ha", "outline": "as §2"}, "false cleavers [10]": {"tested_on": "false cleavers", "assay": "Test Example 4: herbicidal effect by soil treatment (Table 19, symbol Q)", "type": "in vivo, false cleavers (Galium spurium)", "settings": "amount of applied herbicide 320 g/ha", "outline": "as §2"}, "green foxtail [11]": {"tested_on": "green foxtail", "assay": "Test Example 4: herbicidal effect by soil treatment (Table 19, symbol G)", "type": "in vivo, green foxtail (Setaria viridis)", "settings": "amount of applied herbicide 320 g/ha", "outline": "as §2"}, "persian speedwell [12]": {"tested_on": "persian speedwell", "assay": "Test Example 5: herbicidal effect by foliage application, plastic box (Table 20, symbol R)", "type": "in vivo, Persian speedwell (Veronica persica)", "settings": "foliage application, 320 g/ha, evaluated three weeks after application", "outline": "as §1"}, "Chinese sprangletop": {"tested_on": "Chinese sprangletop", "assay": "Test Example 3: herbicidal effect by foliage application, Wagner pot (Table 18, symbol D)", "type": "in vivo, chinese sprangletop (Leptochloa chinensis)", "settings": "amount of applied herbicide 320 g/ha", "outline": "as §3"}, "lambsquarters [13]": {"tested_on": "lambsquarters", "assay": "Test Example 4: herbicidal effect by soil treatment (Table 19, symbol O)", "type": "in vivo, lambsquarters (Chenopodium album)", "settings": "amount of applied herbicide 320 g/ha", "outline": "as §2"}, "barnyard grass [14]": {"tested_on": "barnyard grass", "assay": "Test Example 5: herbicidal effect by foliage application, plastic box (Table 20, symbol H)", "type": "in vivo, barnyard grass (Echinochloa crus-galli)", "settings": "foliage application, 320 g/ha, evaluated three weeks after application", "outline": "as §1"}, "redroot pigweed [15]": {"tested_on": "redroot pigweed", "assay": "Test Example 4: herbicidal effect by soil treatment (Table 19, symbol N)", "type": "in vivo, redroot pigweed (Amaranthus retroflexus)", "settings": "amount of applied herbicide 320 g/ha", "outline": "as §2"}, "southern crabgrass [16]": {"tested_on": "southern crabgrass", "assay": "Test Example 5: herbicidal effect by foliage application, plastic box (Table 20, symbol F)", "type": "in vivo, southern crabgrass (Digitaria ciliaris)", "settings": "foliage application, 320 g/ha, evaluated three weeks after application", "outline": "as §1"}, "barnyard grass [17]": {"tested_on": "barnyard grass", "assay": "Test Example 4: herbicidal effect by soil treatment (Table 19, symbol H)", "type": "in vivo, barnyard grass (Echinochloa crus-galli)", "settings": "amount of applied herbicide 320 g/ha", "outline": "as §2"}, "windgrass [18]": {"tested_on": "windgrass", "assay": "Test Example 4: herbicidal effect by soil treatment (Table 19, symbol L)", "type": "in vivo, windgrass (Apera spica-venti)", "settings": "amount of applied herbicide 320 g/ha", "outline": "as §2"}, "chickweed [19]": {"tested_on": "chickweed", "assay": "Test Example 4: herbicidal effect by soil treatment (Table 19, symbol P)", "type": "in vivo, common chickweed (Stellaria media)", "settings": "amount of applied herbicide 320 g/ha", "outline": "as §2"}, "rice flat sedge": {"tested_on": "rice flat sedge", "assay": "Test Example 3: herbicidal effect by foliage application, Wagner pot (Table 18, symbol E)", "type": "in vivo, rice flat sedge (Cyperus iria)", "settings": "amount of applied herbicide 320 g/ha", "outline": "as §3"}, "lambsquarters [20]": {"tested_on": "lambsquarters", "assay": "Test Example 5: herbicidal effect by foliage application, plastic box (Table 20, symbol O)", "type": "in vivo, lambsquarters (Chenopodium album)", "settings": "foliage application, 320 g/ha, evaluated three weeks after application", "outline": "as §1"}, "false cleavers [21]": {"tested_on": "false cleavers", "assay": "Test Example 5: herbicidal effect by foliage application, plastic box (Table 20, symbol Q)", "type": "in vivo, false cleavers (Galium spurium)", "settings": "foliage application, 320 g/ha, evaluated three weeks after application", "outline": "as §1"}, "windgrass [22]": {"tested_on": "windgrass", "assay": "Test Example 5: herbicidal effect by foliage application, plastic box (Table 20, symbol L)", "type": "in vivo, windgrass (Apera spica-venti)", "settings": "foliage application, 320 g/ha, evaluated three weeks after application", "outline": "as §1"}, "persian speedwell [23]": {"tested_on": "persian speedwell", "assay": "Test Example 4: herbicidal effect by soil treatment (Table 19, symbol R)", "type": "in vivo, Persian speedwell (Veronica persica)", "settings": "amount of applied herbicide 320 g/ha", "outline": "as §2"}, "chickweed [24]": {"tested_on": "chickweed", "assay": "Test Example 5: herbicidal effect by foliage application, plastic box (Table 20, symbol P)", "type": "in vivo, common chickweed (Stellaria media)", "settings": "foliage application, 320 g/ha, evaluated three weeks after application", "outline": "as §1"}, "Italian ryegrass [25]": {"tested_on": "Italian ryegrass", "assay": "Test Example 4: herbicidal effect by soil treatment (Table 19, symbol K)", "type": "in vivo, Italian ryegrass (Lolium multiflorum)", "settings": "amount of applied herbicide 320 g/ha", "outline": "as §2"}, "velvetleaf [26]": {"tested_on": "velvetleaf", "assay": "Test Example 5: herbicidal effect by foliage application, plastic box (Table 20, symbol M)", "type": "in vivo, velvetleaf (Abutilon theophrasti)", "settings": "foliage application, 320 g/ha, evaluated three weeks after application", "outline": "as §1"}, "redroot pigweed [27]": {"tested_on": "redroot pigweed", "assay": "Test Example 5: herbicidal effect by foliage application, plastic box (Table 20, symbol N)", "type": "in vivo, redroot pigweed (Amaranthus retroflexus)", "settings": "foliage application, 320 g/ha, evaluated three weeks after application", "outline": "as §1"}}}
{"compound": "CCCCOc1ccc(-c2sc3ccc(Cl)cc3c2-c2c(OC(=O)CCC)c(C)nn(C)c2=O)cc1", "note": "[2-110]", "values": [{"measurement": "herbicidal effect on K: Italian ryegrass", "setting": "Italian ryegrass [1]", "value": "0 (Herbicidal rate of 5% or less (almost no effect))"}, {"measurement": "I: wild oat, herbicidal effect rating", "setting": "wild oat [2]", "value": "0 (Herbicidal rate of 5% or less (almost no effect))"}, {"measurement": "herbicidal effect on H: barnyard grass", "setting": "barnyard grass [3]", "value": "4 (Herbicidal rate of 70% or more and less than 90%)"}, {"measurement": "herbicidal effect on J: blackgrass", "setting": "blackgrass [4]", "value": "0 (Herbicidal rate of 5% or less (almost no effect))"}, {"measurement": "M: velvetleaf, herbicidal effect rating", "setting": "velvetleaf [5]", "value": "0 (Herbicidal rate of 5% or less (almost no effect))"}, {"measurement": "herbicidal effect on G: green foxtail", "setting": "green foxtail [6]", "value": "0 (Herbicidal rate of 5% or less (almost no effect))"}, {"measurement": "F: southern crabgrass, herbicidal effect rating", "setting": "southern crabgrass [7]", "value": "0 (Herbicidal rate of 5% or less (almost no effect))"}, {"measurement": "herbicidal effect on I: wild oat", "setting": "wild oat [8]", "value": "0 (Herbicidal rate of 5% or less (almost no effect))"}, {"measurement": "J: blackgrass, herbicidal effect rating", "setting": "blackgrass [9]", "value": "0 (Herbicidal rate of 5% or less (almost no effect))"}, {"measurement": "Q: false cleavers, herbicidal effect rating", "setting": "false cleavers [10]", "value": "0 (Herbicidal rate of 5% or less (almost no effect))"}, {"measurement": "G: green foxtail, herbicidal effect rating", "setting": "green foxtail [11]", "value": "0 (Herbicidal rate of 5% or less (almost no effect))"}, {"measurement": "herbicidal effect on R: persian speedwell", "setting": "persian speedwell [12]", "value": "5 (Herbicidal rate of 90% or more (almost completely withered))"}, {"measurement": "herbicidal effect on D: Chinese sprangletop", "setting": "Chinese sprangletop", "value": "4 (Herbicidal rate of 70% or more and less than 90%)"}, {"measurement": "O: lambsquarters, herbicidal effect rating", "setting": "lambsquarters [13]", "value": "0 (Herbicidal rate of 5% or less (almost no effect))"}, {"measurement": "herbicidal effect on H: barnyard grass", "setting": "barnyard grass [14]", "value": "0 (Herbicidal rate of 5% or less (almost no effect))"}, {"measurement": "N: redroot pigweed, herbicidal effect rating", "setting": "redroot pigweed [15]", "value": "0 (Herbicidal rate of 5% or less (almost no effect))"}, {"measurement": "herbicidal effect on F: southern crabgrass", "setting": "southern crabgrass [16]", "value": "0 (Herbicidal rate of 5% or less (almost no effect))"}, {"measurement": "H: barnyard grass, herbicidal effect rating", "setting": "barnyard grass [17]", "value": "0 (Herbicidal rate of 5% or less (almost no effect))"}, {"measurement": "L: windgrass, herbicidal effect rating", "setting": "windgrass [18]", "value": "0 (Herbicidal rate of 5% or less (almost no effect))"}, {"measurement": "P: chickweed, herbicidal effect rating", "setting": "chickweed [19]", "value": "0 (Herbicidal rate of 5% or less (almost no effect))"}, {"measurement": "herbicidal effect on E: rice flat sedge", "setting": "rice flat sedge", "value": "4 (Herbicidal rate of 70% or more and less than 90%)"}, {"measurement": "herbicidal effect on O: lambsquarters", "setting": "lambsquarters [20]", "value": "3 (Herbicidal rate of 40% or more and less than 70%)"}, {"measurement": "herbicidal effect on Q: false cleavers", "setting": "false cleavers [21]", "value": "3 (Herbicidal rate of 40% or more and less than 70%)"}, {"measurement": "herbicidal effect on L: windgrass", "setting": "windgrass [22]", "value": "0 (Herbicidal rate of 5% or less (almost no effect))"}, {"measurement": "R: persian speedwell, herbicidal effect rating", "setting": "persian speedwell [23]", "value": "2 (Herbicidal rate of 20% or more and less than 40%)"}, {"measurement": "herbicidal effect on P: chickweed", "setting": "chickweed [24]", "value": "2 (Herbicidal rate of 20% or more and less than 40%)"}, {"measurement": "K: Italian ryegrass, herbicidal effect rating", "setting": "Italian ryegrass [25]", "value": "0 (Herbicidal rate of 5% or less (almost no effect))"}, {"measurement": "herbicidal effect on M: velvetleaf", "setting": "velvetleaf [26]", "value": "3 (Herbicidal rate of 40% or more and less than 70%)"}, {"measurement": "herbicidal effect on N: redroot pigweed", "setting": "redroot pigweed [27]", "value": "4 (Herbicidal rate of 70% or more and less than 90%)"}]}
